These results are taken from patent US8603465B1, “Methods for treatment of polyposis” (Merck Sharp & Dohme, Corp., priority 2006, dated 2013).

The assay deals with C57Bl/6J (hIGF1R, Apc^Min/+) mice. Briefly: Inhibition of polyposis in human IGF1R knock-in Apc Min/+ mice (adenoma number and diameter scored at postnatal day 80). The format is in vivo. The note with it: small intestine and colon, 19D12 0.02, 0.1, 0.5 mg/mouse i.p. once a week, celecoxib 150, 500, 1500 ppm in diet. The text has this:
In this example, the ability of anti-IGF1R antibody 19D12 (LCF/HCA: amino acids 20-128 of SEQ ID NO: 8 and 20-137 of SEQ ID NO: 10) to treat familial adenomatous polyposis (FAP) is established in a mouse model for the disease. The model comprises the Apc^Min/+ allele which imparts the FAP phenotype. A phenotype that results from the allele is increased development of intestinal adenomas. The Min mutant mouse has an autosomal dominant heterozygous nonsense mutation in the mouse Apc gene (see e.g., Su et al., Science (Wash D.C.) 256: 668-670 (1992)).
The Min mice are also engineered, by a knock-in mutation, to express the human IGF1R gene. Expression of the IGF1R gene, in the Min mouse, allows determination of the ability of an anti-IGF1R antibody to alleviate the FAP phenotype. […]
Small intestinal adenomas and colonic adenomas are scored for number and diameter at postnatal day 80. […] Small intestine surface area is calculated by summation of the multiples of length of each fixed segment by width, which is measured at the midpoint of each segment. Colon surface area is calculated by multiplying the length of the fixed material from the anorectal junction to the point of insertion of the small intestine, omitting the appendix, by the width at the midpoint. Raw numbers of adenomas observed as well as adenomas per unit of small intestine and colon surface area are calculated.

For “19D12 (LCF/HCA): anti-IGF1R antibody 19D12 (LCF/HCA: amino acids 20-128 of SEQ ID NO: 8 and 20-137 of SEQ ID NO: 10)”, the “adenomas per unit surface area” value is reported as “dose-dependent reduction” and the raw adenoma number result is listed as “dose-dependent reduction”.
